Structures are written as SMILES.

For one assay, the target named is T1, 5-HT4 receptor (rat oesophageal tunica muscularis mucosae) (Rattus norvegicus, UniProt Q62758).
T1 construct: oesophageal tunica muscularis mucosae excised from rats; from tissue; host or cells: rat oesophageal tunica muscularis mucosae
T1 sequence (Q62758 whole entry): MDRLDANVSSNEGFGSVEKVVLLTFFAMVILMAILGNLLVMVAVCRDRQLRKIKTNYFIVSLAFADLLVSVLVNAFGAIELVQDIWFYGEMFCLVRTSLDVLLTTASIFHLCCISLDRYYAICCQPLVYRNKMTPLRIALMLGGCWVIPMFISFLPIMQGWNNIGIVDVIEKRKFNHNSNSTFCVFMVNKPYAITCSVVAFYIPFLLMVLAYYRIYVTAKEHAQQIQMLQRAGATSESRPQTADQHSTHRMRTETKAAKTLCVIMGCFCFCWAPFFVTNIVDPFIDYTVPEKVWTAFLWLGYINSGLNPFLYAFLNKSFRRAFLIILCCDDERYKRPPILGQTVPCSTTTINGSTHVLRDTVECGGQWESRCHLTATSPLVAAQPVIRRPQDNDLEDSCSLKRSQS
Nature of the assay: 5-HT4 agonist activity: relaxation of carbachol-contracted rat oesophageal tunica muscularis mucosae. Type of assay: cell-based.
Conditions: not given
The procedure: The agonist activities of the indazole derivatives of the present invention and Mosapride were determined by the following method, that is, the method determining 5-HT4 agonist activity by using rat oesophageal tunica muscularis mucosae (Naunyn-Schmiedeberg's Arch. Pharmacol., Vol. 343, 439-446, 1991).
According to the method of the literature, the oesophageal tunica muscularis mucosae excised from rats were suspended in an organ bath containing Krebs-Henseleit solution aerated with a mixed gas (95% O2, 5% CO2) and contracted with carbachol (1×10^-6 M). After the contraction was stabilized, the cumulative administration of the compounds was performed to determine the relaxation of the rat oesophagus pre-contracted with carbachol. The concentration (ED50) to cause 50% relaxation of the carbachol-induced contraction was measured. The result is expressed in terms of -log ED50 and shown in the following table in which higher numerical value indicates higher activity.
`CCCCN1CCN(CCCNC(=O)c2nn(CCC)c3ccccc23)CC1` [Compound 1, N-[3-(4-n-Butyl-1-piperazinyl)propyl]-1-n-propylindazole-3-carboxamide] had an EC50 of 10.5 µM. Same read-out and setting: under `CCCn1nc(C(=O)NCCN2CCN(C)CC2)c2ccccc21` [Compound 2, N-[2-(4-Methyl-1-piperazinyl)ethyl]-1-n-propylindazole-3-carboxamide] stands 20.4 µM; under `CCCCN1CCN(CCNC(=O)c2nn(CCC)c3ccccc23)CC1` [Compound 3, N-[2-(4-n-Butyl-1-piperazinyl)ethyl]-1-n-propylindazole-3-carboxamide], 2.4 µM. On the same count and under the same terms, with `CCCn1nc(C(=O)NCC=C2CCN(C)CC2)c2ccccc21` [Compound 4, N-[2-(1-Methyl-4-piperidylidene)ethyl]-1-n-propylindazole-3-carboxamide] the figure was 9.77 µM; with `CCCCN1CCC(=CCNC(=O)c2nn(CCC)c3ccccc23)CC1` [Compound 5, N-[2-(1-n-Butyl-4-piperidylidene)ethyl]-1-n-propylindazole-3-carboxamide], 0.437 µM; with `CCCCN1CCCC(NC(=O)c2nn(CCC)c3ccccc23)CCC1` [Compound 6, N-(1-n-Butyl-5-octahydroazocinyl)-1-n-propylindazole-3-carboxamide], 6.46 µM. Take `CCCn1nc(C(=O)NCC2CCN(C)CC2)c2ccccc21` [Compound 7, N-(1-Methyl-4-piperidyl)methyl-1-n-propylindazole-3-carboxamide]: the EC50 is 5.01 µM. Still for that read-out and setting: with `CCCn1nc(C(=O)NCCC2CCN(C)CC2)c2ccccc21` [Compound 8, N-[2-(1-Methyl-4-piperidyl)ethyl]-1-n-propylindazole-3-carboxamide] the figure was 10.7 µM; with `CCCn1nc(C(=O)NCC=C2CCN(Cc3ccc(F)cc3)CC2)c2ccccc21` [Compound 12, N-[2-(1-p-Fluorobenzyl-4-piperidylidene)ethyl]-1-n-propylindazole-3-carboxamide], 3.39 µM; with `CCCCN1CCN(CCNC(=O)c2nn(C(C)CC)c3ccccc23)CC1` (stereo not drawn) [Compound 13, N-[2-(4-n-Butyl-1-piperazinyl)ethyl]-1-sec-butylindazole-3-carboxamide], 5.5 µM. Take `CCCCN1CCN(CCNC(=O)c2nn(C(CC)CC)c3ccccc23)CC1` [Compound 14, N-[2-(4-n-Butyl-1-piperazinyl)ethyl]-1-(3-pentyl)indazole-3-carboxamide]: the EC50 is 6.03 µM. Still for that read-out and setting: with `CCCn1nc(C(=O)NCCN2CCN(Cc3ccc(F)cc3)CC2)c2ccccc21` [Compound 15, N-[2-(4-p-Fluorobenzyl-1-piperazinyl)ethyl]-1-n-propylindazole-3-carboxamide] the figure was 6.76 µM. The same measure, in the same setting: under `C=CCn1nc(C(=O)NCCN2CCN(Cc3ccc(F)cc3)CC2)c2ccccc21` [Compound 16, N-[2-(4-p-Fluorobenzyl-1-piperazinyl)ethyl]-1-allylindazole-3-carboxamide] stands 7.41 µM; under `CCCn1nc(C(=O)NC2CCN(Cc3ccccc3)CC2)c2ccccc21` [Compound 17, N-(1-Benzyl-4-piperidyl)-1-n-propylindazole-3-carboxamide], 3.39 µM. Still for that read-out and setting: with `CCCCN1CCC(CNC(=O)c2nn(CCC)c3ccccc23)CC1` [Compound 18, N-(1-n-Butyl-4-piperidyl)methyl-1-n-propylindazole-3-carboxamide] the figure was 7.94 µM. Molecule `CCCCN1CCC(CCNC(=O)c2nn(CCC)c3ccccc23)CC1` [Compound 19, N-[2-(1-n-Butyl-4-piperidyl)ethyl]-1-n-propylindazole-3-carboxamide] gave an EC50 of 1.29 µM. The molecule `CCCn1nc(C(=O)NC2CCNCC2)c2ccccc21` [Compound 20, N-(4-Piperidyl)-1-n-propylindazole-3-carboxamide] showed an EC50 of 112 µM. On to `CCCn1nc(C(=O)NCC2CCNCC2)c2ccccc21` [Compound 21, N-(4-Piperidyl)methyl-1-n-propylindazole-3-carboxamide], for which the EC50 is 47.9 µM. On the same count and under the same terms, under `CCCn1nc(C(=O)NC2CCN(C)CC2)c2ccccc21` [Compound 22, N-(1-Methyl-4-piperidyl)-1-n-propylindazole-3-carboxamide] stands 6.92 µM. The same measure, in the same setting: with `CCCCN1CCC(NC(=O)c2nn(CCC)c3ccccc23)CC1` [Compound 23, N-(1-n-Butyl-4-piperidyl)-1-n-propylindazole-3-carboxamide] the figure was 2.82 µM; with `C=CCN1CCN(CCNC(=O)c2nn(CCC)c3ccccc23)CC1` [Compound 25, N-[2-(4-Allyl-1-piperazinyl)ethyl]-1-n-propylindazole-3-carboxamide], 6.03 µM. Same read-out and setting: under `CCCN1CCN(CCNC(=O)c2nn(CCC)c3ccccc23)CC1` [Compound 26, N-[2-(4-n-Propyl-1-piperazinyl)ethyl]-1-n-propylindazole-3-carboxamide] stands 8.91 µM; under `CCCCCN1CCN(CCNC(=O)c2nn(CCC)c3ccccc23)CC1` [Compound 27, N-[2-(4-n-Pentyl-1-piperazinyl)ethyl]-1-n-propylindazole-3-carboxamide], 2.69 µM. Take `CCCn1nc(C(=O)NCCN2CCN(Cc3ccc(OC)cc3)CC2)c2ccccc21` [Compound 28, N-[2-(4-p-Methoxybenzyl-1-piperazinyl)ethyl]-1-n-propylindazole-3-carboxamide]: the EC50 is 1.58 µM.

`CCCCN1CCN(CCNC(=O)c2nn(CC)c3ccccc23)CC1` [Compound 29, N-[2-(4-n-Butyl-1-piperazinyl)ethyl]-1-ethylindazole-3-carboxamide] had an EC50 of 10.2 µM. As to `CCCCN1CCN(CCNC(=O)c2nn(C(C)C)c3ccccc23)CC1` [Compound 30, N-[2-(4-n-Butyl-1-piperazinyl)ethyl]-1-isopropylindazole-3-carboxamide], the EC50 was 2.95 µM.

With `CCCCN1CCN(CCNC(=O)c2nn(C3CCCC3)c3ccccc23)CC1` [Compound 31, N-[2-(4-n-Butyl-1-piperazinyl)ethyl]-1-cyclopentylindazole-3-carboxamide], the EC50 is 5.01 µM.

Still in this assay, the particulars now being: concentration causing 50% relaxation of the carbachol (1×10^-6 M)-induced contraction; cumulative administration; read-out: Activity (-log ED50) (converted).
Take `O=C(NCC=C1CCN(Cc2ccc(F)cc2)CC1)c1n[nH]c2ccccc12` [Compound 9, N-[2-(1-p-Fluorobenzyl-4-piperidylidene)ethyl]-1H-indazole-3-carboxamide]: the EC50 is 7.41 µM. On the same count and under the same terms, under `O=C(NCCN1CCN(Cc2ccc(F)cc2)CC1)c1n[nH]c2ccccc12` [Compound 11, N-[2-(4-p-Fluorobenzyl-1-piperazinyl)ethyl]-1H-indazole-3-carboxamide] stands 12.6 µM; under `CCCCN1CCN(CCNC(=S)c2nn(CCC)c3ccccc23)CC1` [Compound 32, N-[2-(4-n-Butyl-1-piperazinyl)ethyl]-1-n-propylindazole-3-thiocarboxamide], 10.5 µM.

`CCCCN1CCN(CCNCc2nn(CCC)c3ccccc23)CC1` [Compound 33, 3-{N-[2-(4-n-Butyl-1-piperazinyl)ethyl]aminomethyl}-1-n-propylindazole]: the EC50 is 29.5 µM.

System in another assay: not given
Assay: not given
Conditions: U.S. Pat. No. 3,145,215; cited from earlier work.
Regarding `CN1CCN(CCNC(=O)c2n[nH]c3ccccc23)CC1` [N-[2-(4-methyl-1-piperazinyl)ethyl]-1H-indazole-3-carboxamide], the “hypotensive activity (in words)” value is listed as “has hypotensive activity”.

The test system of a further assay is 5-HT4 receptor.
Assay: not given
Conditions: WO 9303725; cited from earlier work.
Consider `CCCCN1CCC(COC(=O)c2nn(C)c3ccccc23)CC1` [(1-butyl-4-piperidyl)methyl-1-methylindazole-3-carboxylate], for which the “5-HT4 receptor antagonist activity (in words)” value was “has a 5-HT4 receptor antagonist activity”.

Source of the values: patent US5945434A, “Indazole derivatives having monocyclic amine” (Nisshin Flour Milling Co., Ltd., priority 1995, dated 1999).
